Assay results published in US20220370625A1, “THERAPEUTIC CONJUGATES” (Totus Medicines Inc., priority 2019, published 2022).

Molecular target: T1, estrogen receptor (Homo sapiens, UniProt P03372)
T1 construct: expressed in transfected cells; host or cells: HEK293 (Gibco 293-H), transient transfection with FuGENE HD
T1 sequence (P03372 1-595): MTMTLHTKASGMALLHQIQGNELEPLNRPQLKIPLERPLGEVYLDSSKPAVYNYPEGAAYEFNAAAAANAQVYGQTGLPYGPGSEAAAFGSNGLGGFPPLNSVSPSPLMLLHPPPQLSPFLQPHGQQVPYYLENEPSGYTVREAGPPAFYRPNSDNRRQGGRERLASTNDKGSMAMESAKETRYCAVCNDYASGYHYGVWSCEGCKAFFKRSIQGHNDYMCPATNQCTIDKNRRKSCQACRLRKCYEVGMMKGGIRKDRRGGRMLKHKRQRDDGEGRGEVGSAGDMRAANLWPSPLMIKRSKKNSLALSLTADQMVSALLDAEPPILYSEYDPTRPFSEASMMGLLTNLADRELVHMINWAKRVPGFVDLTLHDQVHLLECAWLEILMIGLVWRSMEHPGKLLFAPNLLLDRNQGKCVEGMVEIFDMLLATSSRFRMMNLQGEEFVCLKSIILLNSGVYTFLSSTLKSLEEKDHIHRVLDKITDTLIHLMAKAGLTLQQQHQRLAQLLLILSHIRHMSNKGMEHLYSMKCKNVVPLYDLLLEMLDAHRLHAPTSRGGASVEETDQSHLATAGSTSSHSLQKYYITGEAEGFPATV
Experiment: NanoBRET screening of ARCS (binding assay with washout) in transfected HEK293 cells
Settings: HEK293 cells transfected with NanoLuc-target fusion; for Binding Potential (Percent inhibition): estrogen receptor
Experimental: Human embryonic kidney 293-H (HEK 293, Gibco 293-H, #11631017) cell lines are maintained in Dulbecco's Modified Eagle Medium, high glucose, pyruvate (DMEM, Gibco, #11995065) supplemented with 10% fetal bovine serum (FBS, Gibco, #10082147) and 1× penicillin-streptomycin (100× solution, Gibco, #15140148) at 37° C. and 5% CO2 in a water-saturated incubator. Cell are trypsinized using 0.05% or 0.25% Trypsin-EDTA solution (Trypsin-EDTA, phenol red, Gibco, #25200056 (0.25%) or #25300054). Opti-MEM media supplemented with 10% fetal bovine serum (Opti-MEM I reduced serum media, no phenol red, Gibco, #11058021) is used for culturing cells overnight for NanoBRET readout experiments.
HEK293 cells are cultivated appropriately prior to assay. The medium from cell flask is removed via aspiration, washed 1× with PBS followed by aspiration, trypsinized, and cells are allowed to dissociate from the flask. Trypsin is neutralized using growth medium and cells are pelleted via centrifugation at 200×g for 5 minutes. The medium is aspirated and the cells are resuspended into a single cell suspension using Opti-MEM I supplemented with 10% FBS. The cell density is adjusted to 2×10^5/mL in Opti-MEM I supplemented with 10% FBS in a sterile, conical tube. The cells are transfected and aliquoted directly in a 96-well plate for the NanoBRET assay the next day, and therefore, the cells are cultured overnight in Opti-MEM. The cells are also transfected in bulk and dispensed into a 96-well plate to allow cells to adhere to the plate overnight, thereby enabling washout studies.
The lipid:DNA complexes are prepared as follows:
A 10 μg/mL solution of DNA is prepared in Opti-MEM without serum. This solution contains the following ratios of carrier DNA and DNA encoding NanoLuc fused to the biological target. Serial dilution steps may be warranted to accurately dilute the NanoLuc fusion DNA. Added, in order, the following reagents to a sterile polystyrene test tube: 1 mL of Opti-MEM without phenol red; 9.0 μg/mL of carrier DNA; 1.0 μg/mL of NanoLuc fusion DNA (for some targets, the amount is less). The reagents are mixed thoroughly. 30 μL of FuGENE HD is added into each mL of DNA mixture to form lipid:DNA complex. […] It is mixed by pipetting up and down 5-10 times and incubated at room temperature for 20 minutes to allow complexes to form. 1 part (e.g. 1 mL) of lipid:DNA complex is mixed with 20 parts (e.g. 20 mL) of HEK293 cells in suspension at 2×10^5/mL and mixed gently by pipetting up and down 5 times in a sterile, conical tube. Larger or smaller bulk transfections are scaled accordingly, using this ratio. 100 μL cells+lipid:DNA complex is dispensed into a sterile, tissue-culture treated 96-well plate (20,000 cells/well), and incubated at least 16 hours to allow expression. The cells are incubated in a 37° C.+5% CO2 incubator for >16 hrs. A serially diluted inhibitor or test compound is prepared at 100× final concentration in 100% DMSO. The serially diluted inhibitor stock is prepared in PCR plates. 1 μL per well of 100× serially diluted inhibitor/test compound is added to the cells in 96-well plates that have been transiently transfected overnight and mixed by tapping the plate by hand. The plate is incubated at 37° C.+5% CO2 incubator overnight. A 1× solution of substrate mix (500× stock) and appropriate concentration of tracer is prepared in Opti-Mem. The cells are washed by setting a plate washer to the 96 well plate 5× in PBS pH 7.4 by adding 200 μL PBS each time. The cells are incubated at 37° C. for 2 hours. 100 μL of the 1× Substrate-Tracer solution is added and the 96 well plate is gently tapped to mix. The plate on plate reader is read every hour for the next 6 hours.
The binding assays of some ARCS are shown below. Compound 2-314 formed a covalent bond with an estrogen receptor of <20%. Compounds 2-302 and 2-303 formed a covalent bond with an estrogen receptor from about 50% to 70%. […]

Compound	Binding Potential (Percent inhibition)	activity of an estrogen receptor is inhibited (overnight incubation, washout) [%]	formed a covalent bond with an estrogen receptor (overnight incubation, washout) [%]
CC1Cc2c([nH]c3ccccc23)C(c2ccc(N)cc2)N1CC(C)(C)F (centres unmarked) [Compound 2-312]	++++ (++++ >90%)		
CC1Cc2c([nH]c3ccccc23)C(c2c(F)cc(OCCNCC=CC(=O)N(C)C)cc2F)N1CC(C)(C)F (centres unmarked) [Compound 2-103]	++++ (++++ >90%)		
CC#CC(=O)NCCc1cc(F)c(C2c3[nH]c4ccccc4c3CC(C)N2CC(C)(C)F)c(F)c1 (centres unmarked) [Compound 2-310]	++++ (++++ >90%)		
C=CC(=O)NCCc1cc(F)c(C2c3[nH]c4ccccc4c3CC(C)N2CC(C)(C)F)c(F)c1 (centres unmarked) [Compound 2-307]	++++ (++++ >90%)		
C#CCN(C)C(=O)C=CCNCCOc1cc(F)c(C2c3[nH]c4ccccc4c3CC(C)N2CC(C)(C)F)c(F)c1 (centres unmarked) [Compound 2-311]	++++ (++++ >90%)		
CC1Cc2c([nH]c3ccccc23)C(c2ccc(NCCNCC=CC(=O)N(C)C)nc2)N1CC(C)(C)F (centres unmarked) [Compound 2-107]	+++ (+++ 80-90%)		
CC1Cc2c([nH]c3cc(F)ccc23)C(c2c(F)cc(OCCNCC=CC(=O)N(C)C)cc2F)N1CC(C)(C)F (centres unmarked) [Compound 2-115]	++++ (++++ >90%)		
C=CC(=O)NCCc1cc(F)c(C2c3[nH]c4ccccc4c3CC(C)N2CC(C)(C)F)c(F)n1 (centres unmarked) [Compound 2-306]	++++ (++++ >90%)		
CC1Cc2c([nH]c3ccccc23)C(c2c(F)cc(NCCNCC=CC(=O)N(C)C)cc2F)N1CC(C)(C)F (centres unmarked) [Compound 2-109]	+++ (+++ 80-90%)		
C=CC(=O)NCCOc1ccc(C2c3[nH]c4ccccc4c3CC(C)N2CC(C)(C)F)cn1 (centres unmarked) [Compound 2-316]	++++ (++++ >90%)		
CC1Cc2c([nH]c3ccccc23)C(c2c(F)cc(NCCNCC=CC(=O)N(C)C)nc2F)N1CC(C)(C)F (centres unmarked) [Compound 2-108]	+++ (+++ 80-90%)		
CC#CC(=O)NCCc1ccc(C2c3[nH]c4ccccc4c3CC(C)N2CC(C)(C)F)cn1 (centres unmarked) [Compound 2-308]	++++ (++++ >90%)		
CC#CC(=O)NCCc1cc(F)c(C2c3[nH]c4ccccc4c3CC(C)N2CC(C)(C)F)c(F)n1 (centres unmarked) [Compound 2-309]	++++ (++++ >90%)		
C#CCCCNC(=O)C=CCNCCOc1cc(F)c(C2c3[nH]c4ccccc4c3CC(C)N2CC(C)(C)F)c(F)c1 (centres unmarked) [Compound 2-300]	+++ (+++ 80-90%)		
CC1Cc2c([nH]c3ccccc23)C(c2c(F)cc(C=CCNCC=CC(=O)N(C)C)nc2F)N1CC(C)(C)F (centres unmarked) [Compound 2-304]	++++ (++++ >90%)		
CC1Cc2c([nH]c3ccccc23)C(c2ccc(C=CCNCC=CC(=O)N(C)C)nc2)N1CC(C)(C)F (centres unmarked) [Compound 2-302]	++ (++ 50-70%)		
CC1Cc2c([nH]c3ccccc23)C(c2c(F)cc(N)cc2F)N1CC(C)(C)F (centres unmarked) [Compound 2-301]	+++ (+++ 80-90%)		
CC1Cc2c([nH]c3ccccc23)C(c2c(F)cc(OCCNCC=CC(=O)N(C)C)nc2F)N1CC(C)(C)F (centres unmarked) [Compound 2-102]	+++ (+++ 80-90%)		
CC1Cc2c([nH]c3cc(F)ccc23)C(c2c(F)cc(OCCNCC=CC(=O)N(C)C)cc2F)N1CC(C)(F)CO (centres unmarked) [Compound 2-118]	++++ (++++ >90%)		
C=CC(=O)NCCc1ccc(C2c3[nH]c4ccccc4c3CC(C)N2CC(C)(C)F)cn1 (centres unmarked) [Compound 2-305]	++++ (++++ >90%)		
CC1Cc2c([nH]c3ccccc23)C(c2ccc(OCCNCC=CC(=O)N(C)C)nc2)N1CC(C)(C)F (centres unmarked) [Compound 2-315]	++++ (++++ >90%)		
CC1Cc2c([nH]c3ccccc23)C(c2c(F)cc(C=CCNCC=CC(=O)N(C)C)cc2F)N1CC(C)(C)F (centres unmarked) [Compound 2-303]	++ (++ 50-70%)		
CC1Cc2c([nH]c3ccccc23)C(c2ccc(N)nc2)N1CC(C)(C)F (centres unmarked) [Compound 2-314]	+ (+ <20%)	< 20	< 20
C[C@@H]1Cc2c([nH]c3ccccc23)[C@@H](c2c(F)cc(OCCNC/C=C/C(=O)N(C)C)cc2F)N1CC(C)(F)CO (some centres unmarked) [Compound 2-106]	++++ (++++ >90%)		
